This is an account of results in patent EP1073452B1, “USE OF […] TREATING CYTOKINE MEDIATED HEPATIC INJURY” (University of Kentucky Research Foundation, priority 1998, dated 2003).

In this assay the test system is Male BALB/c HSD mice. As to the kind of experiment: Survival of mice rendered hepatotoxic by LPS/GAL treatment (model for septic shock / hepatic failure). Type of assay: in vivo. On the procedure:
Hepatic failure was induced in mice by intraperitoneal injections of a mixture of lipopolysaccharide (LPS) (100 µg/kg) and D-galactosamine (GAL) (700 mg/kg) to form LPS/GAL. LPS is a bacterial endotoxin that is a major stimulus for production of many cytokines, particularly tumor necrosis factor (TNF), thought to be involved in liver injury. GAL is an amino sugar that sensitizes hepatocytes by depleting the base uridine and thus preventing hepatic transcription, and sensitizes animals to normally innocuous amounts of endotoxin or TNF. The LPS/GAL treatment induces fulminate hepatic and multiorgan failure, and serves as a model for septic shock. The major effects of LPS/GAL are elicited by the inflammatory cytokine TNF-α. Hepatocytes sensitized to TNF-α then undergo apoptosis or programmed cell death in response to inflammatory processes.
Mice were treated with deltorphin and were subsequently rendered hepatotoxic by LPS/GAL treatment. An emulsion of deltorphin I SEQ ID NO:1 (Tyr-D-Ala-Phe-Asp-Val-Val-Gly-NH2) was prepared at a concentration of 80 µg/200 µl in sterile phosphate buffered saline (PBS). An emulsion of DADLE (Tyr-D-Ala-Gly-Phe-D-Leu-enkephalin) was also prepared at a concentration of 80 µg/200 µl in sterile PBS. Male BALB/c HSD mice were treated by intraperitoneal injections according to the following protocol. Control mice (n = 7) received only LPS/GAL (280 µl) at 6.5 h. Deltorphin I SEQ ID NO:1 treated mice (n = 15) received injections of 4 mg/kg deltorphin I SEQ ID NO:1 at 0 h, 2 h, 4 h, 6 h and 7.5 h and received an LPS/GAL injection at 6.5 h. DADLE treated mice (n = 15) received 4 mg/kg DADLE at 0 h, 2 h, 4 h, 6 h and 7.5 h and received an LPS/GAL injection at 6.5 h.
Both control and treated mice were monitored at 15 h, 20 h, 40 h and 65 h after the last injection. TABLE

Setting [1] is: n = 15, 4 mg/kg intraperitoneal at 0 h, 2 h, 4 h, 6 h and 7.5 h, LPS/GAL at 6.5 h, 15 h after the last injection.
[2] abbreviates: n = 15, 4 mg/kg intraperitoneal at 0 h, 2 h, 4 h, 6 h and 7.5 h, LPS/GAL at 6.5 h, 20 h after the last injection.
[3] abbreviates: n = 15, 4 mg/kg intraperitoneal at 0 h, 2 h, 4 h, 6 h and 7.5 h, LPS/GAL at 6.5 h, 40 h after the last injection.
[4] abbreviates: n = 15, 4 mg/kg intraperitoneal at 0 h, 2 h, 4 h, 6 h and 7.5 h, LPS/GAL at 6.5 h, 65 h after the last injection.

For the substance “Tyr-D-Ala-Gly-Phe-D-Leu-enkephalin [DADLE]”, the survival time result (mice made septic by LPS/GAL treatment, compared to mice receiving LPS/GAL only) is “not as striking”. Also, under setting [1], the “SURVIVAL 15 Hours (number of mice)” value is 3 and the “SURVIVAL 15 Hours (percent)” value came out at 20%. For the same substance, under setting [2], the “SURVIVAL 20 Hours (number of mice)” value is 3 and the “SURVIVAL 20 Hours (percent)” value was 20%. Moreover, under setting [3], the “SURVIVAL 40 Hours (number of mice)” value turned out to be 3 and the “SURVIVAL 40 Hours (percent)” value stood at 20%. For the same substance, under setting [4], the “SURVIVAL 65 Hours (number of mice)” value is 3 and the “SURVIVAL 65 Hours (percent)” value was 20%.
